According to PubChem BioAssay AID1552 (Sanford-Burnham Center for Chemical Genomics, 2009):
Activity calls are given as the source filed them. The rule behind the calls is not given here.

Target: Ubiquitin-conjugating enzyme E2 N (Homo sapiens) (UniProt P61088)
Experiment: NMR detection of UBE2N ligand binding – biophysical, purified protein (AID 1552)
Conditions: NMR binding to purified UBE2N

Ubiquitin-conjugating enzyme E2 N (Homo sapiens), sequence (P61088 whole entry, looked up): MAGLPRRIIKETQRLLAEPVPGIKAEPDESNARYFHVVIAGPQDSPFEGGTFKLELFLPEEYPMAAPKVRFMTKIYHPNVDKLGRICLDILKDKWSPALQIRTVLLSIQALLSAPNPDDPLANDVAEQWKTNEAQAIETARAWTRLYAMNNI

Row | Structure (SMILES) | Kd
1 | NCc1nc2ccccc2s1 | > 4 mM (inactive)
2 | Cc1cn(C(=O)CN2C(=O)c3ccccc3C2=O)c(C)n1 | > 4 mM (inactive)
3 | O=c1[nH]nc(Cc2ccncc2)c2ccccc12 | > 4 mM (inactive)
4 | CC(C)C(=O)NC(=S)N1CCOCC1 | > 4 mM (inactive)
5 | Clc1ccc(SCCn2cncn2)cc1 | > 4 mM (inactive)
6 | O=C(O)CC1C(=O)NCCN1Cc1ccccc1 (stereo not drawn) | > 4 mM (inactive)
7 | NC(=O)CSc1nc2ccccc2o1 | > 4 mM (inactive)
8 | O=C(Nc1cccc(Cl)c1)c1ccncc1 | > 4 mM (inactive)
9 | C[C@H]1CCCC(=O)CCC/C=C/c2cc(O)cc(O)c2C(=O)O1 | > 4 mM (inactive)
10 | COc1cc([C@@H]2c3cc4c(c(O)c3C[C@H]3COC(=O)[C@@H]32)OCO4)cc(OC)c1OC | > 4 mM (inactive)
11 | Clc1ccccc1OCCn1ccnc1 | > 4 mM (inactive)
12 | O=C(/C=C/C=C/c1ccc2c(c1)OCO2)N1CCCCC1 | > 4 mM (inactive)
13 | CC12CCC(O)CC1CCC1C2[C@H](O)CC2(C)C(C3=CC(=O)OC3)CCC12O (stereo partly drawn) | > 4 mM (inactive)
14 | O=C(O)Cn1cnc2ccccc2c1=O | > 4 mM (inactive)
15 | CN1C(=O)c2ccc(N=C3NC(=O)CS3)cc2C1=O | > 4 mM (inactive)
16 | CC(=O)N1N=C(N)SC1c1cccnc1 (stereo not drawn) | > 4 mM (inactive)
17 | O=C(NCc1ccco1)c1ccc(=O)[nH]c1 | > 4 mM (inactive)
18 | NCc1c[nH]c2ccccc12 | > 4 mM (inactive)
19 | CC(=O)c1cc2c(s1)SCC(=O)N2 | > 4 mM (inactive)
20 | COc1nc(C#N)c(N2CCOCC2)o1 | > 4 mM (inactive)
21 | Cc1cc(=O)oc2cc(O)c(O)cc12 | > 4 mM (inactive)

Row | Structure (SMILES) | Kd
22 | Cc1nc2ccccc2c(=O)n1NC(=O)C1CCCCC1 | > 4 mM (inactive)
23 | O=C(c1ccco1)N1CCCN(C(=O)c2ccco2)CC1 | > 4 mM (inactive)
24 | Cc1cccc(C(C)C)c1NC(=O)c1cccnc1 | > 4 mM (inactive)
25 | O=C(Nc1nnc(-c2ccncc2)o1)c1cccs1 | > 4 mM (inactive)
26 | COc1cccc2c(=O)n(CC(N)=O)ccc12 | > 4 mM (inactive)
27 | O=C1COc2ccc(C(=O)c3ccccc3)cc2CN1 | > 4 mM (inactive)
28 | CC1(C)Cc2c(C#N)c(N)n(-c3ccccc3)c(=O)c2CO1 | > 4 mM (inactive)
29 | Fc1cccc(Cl)c1CN1CCCNCC1 | > 4 mM (inactive)
30 | c1ccc(-c2nc3ccccc3nc2-c2ccccn2)nc1 | > 4 mM (inactive)
31 | CC(C)NS(=O)(=O)c1ccc(N)cc1 | > 4 mM (inactive)
32 | Cc1occc1C(=O)Nc1nnc(C2CCCCC2)s1 | > 4 mM (inactive)
33 | CCNC(CC(=O)Nc1cccc([N+](=O)[O-])c1)C(=O)O (stereo not drawn) | > 4 mM (inactive)
34 | CN(C)C(=S)Nc1ccc([N+](=O)[O-])cc1 | > 4 mM (inactive)
35 | Nc1cc(=O)[nH]c(=O)n1-c1ccccc1 | > 4 mM (inactive)
36 | c1ccc(-n2cnnc2)nc1 | > 4 mM (inactive)
37 | COc1ccc(-c2nc(C)sc2CC(=O)O)cc1 | > 4 mM (inactive)
38 | CCCCC(Nc1n[nH]c(=O)[nH]c1=O)C(=O)O (stereo not drawn) | > 4 mM (inactive)
39 | CCNC(=S)Nc1c(C)n(C)n(-c2ccccc2)c1=O | > 4 mM (inactive)
40 | CCOCC(=O)NCc1n[nH]c(=O)c2ccccc12 | > 4 mM (inactive)
41 | O=C(O)c1onc2ccccc12 | > 4 mM (inactive)
42 | Nc1ccc2nccnc2c1 | > 4 mM (inactive)

Row | Structure (SMILES) | Kd
43 | CCc1ccc(/C=N/n2cnnc2)cc1 | > 4 mM (inactive)
44 | O=C(O)c1csc(-c2cccnc2)n1 | > 4 mM (inactive)
45 | COc1c(CC=C(C)C)c2c(c3oc(=O)c(-c4ccc(O)cc4)c(O)c13)C=CC(C)(C)O2 | > 4 mM (inactive)
46 | Oc1ccccc1N1CCOCC1 | > 4 mM (inactive)
47 | O=C1NC(=S)N/C1=C/c1ccc(O)c(Cl)c1 | > 4 mM (inactive)
48 | Fc1ccc(-c2n[nH]c(=S)n2CC2CCCO2)cc1 (stereo not drawn) | > 4 mM (inactive)
49 | Cn1c(=O)n(CC(=O)N2CCOCC2)c2ccccc21 | > 4 mM (inactive)
50 | CC(CC(=O)NN)C1(O)CCCCC1 (stereo not drawn) | > 4 mM (inactive)
51 | CN1C(CC(=O)c2ccccc2)CCCC1CC(O)c1ccccc1 (stereo not drawn) | > 4 mM (inactive)
52 | O=C(Nc1ccc2c(c1)OCO2)c1cccs1 | > 4 mM (inactive)
53 | Cc1cc(=O)c2c(O)cc(O)c(C)c2o1 | > 4 mM (inactive)
54 | O=C(O)CCNc1n[nH]c(=O)[nH]c1=O | > 4 mM (inactive)
55 | CC1(C)N([O-])c2cc([N+](=O)[O-])ccc2[N+]1=O | > 4 mM (inactive)
56 | c1n[nH]cc1-c1cn[nH]c1 | > 4 mM (inactive)
57 | NC(CCC(=O)Nc1ccc([N+](=O)[O-])cc1)C(=O)O (stereo not drawn) | > 4 mM (inactive)
58 | CC1(C)C(=O)C=C[C@@]2(C)C1=C(O)C(=O)[C@]1(C)C2CC[C@@]2(C)[C@H](c3ccoc3)C[C@H]3O[C@]321 (stereo partly drawn) | > 4 mM (inactive)
59 | CC(=O)N1CCc2cc(NC(=O)c3ccc(C)cc3)ccc21 | > 4 mM (inactive)
60 | O=C(NCO)c1ccc([N+](=O)[O-])cc1 | > 4 mM (inactive)
61 | COC(=O)CC1NC2CCCCC2NC1=O (stereo not drawn) | > 4 mM (inactive)
62 | CC(C)(C)CC(=O)NNC(=O)c1cnccn1 | > 4 mM (inactive)
63 | CN(C)Cc1nc2c([nH]1)c(=O)[nH]c(=O)n2C | > 4 mM (inactive)

Row | Structure (SMILES) | Kd
64 | N#Cc1cc2c(nc1SCc1ccncc1)CCC2 | > 4 mM (inactive)
65 | Cc1cc(C)n(C/C=C/Cn2nc(C)cc2C)n1 | > 4 mM (inactive)
66 | CC1(C)C(=O)[C@@H]2O[C@@H]2[C@@]2(C)C1C[C@@H](O)[C@]1(C)C2CC[C@@]2(C)[C@H](c3ccoc3)OC(=O)C3OC321 (stereo partly drawn) | > 4 mM (inactive)
67 | c1ccc(-c2csc(Nc3cccnc3)n2)nc1 | > 4 mM (inactive)
68 | O=C(O)C(O)C(O)C(O)C(O)C(=O)O (stereo not drawn) | > 4 mM (inactive)
69 | Cc1ccc(C(=O)Nc2nnc(-c3ccncc3)s2)o1 | > 4 mM (inactive)
70 | Cc1c(N=CN(C)C)c(=O)n(-c2ccccc2)n1C | > 4 mM (inactive)
71 | CCOc1nc(C)ccc1-c1noc(-c2ccncc2)n1 | > 4 mM (inactive)
72 | CN1CN(Cc2ccccc2)CN/C1=N/[N+](=O)[O-] | > 4 mM (inactive)
73 | COc1ccc([C@H]2Oc3c(I)c(OC)cc(OC)c3C[C@@H]2O)cc1OC | > 4 mM (inactive)
74 | CNc1nc(SC)nc(N2CCOCC2)n1 | > 4 mM (inactive)
75 | O=C(NCN1CCOCC1)c1cccnc1 | > 4 mM (inactive)
76 | CN(C(=O)NC1CCS(=O)(=O)C1)C1CCCCC1 (stereo not drawn) | > 4 mM (inactive)
77 | C[C@@H]1O[C@@H](O[C@H]2[C@H](Oc3cc(O)c4c(=O)cc(-c5ccc(O)cc5)oc4c3)O[C@H](CO)[C@@H](O)[C@@H]2O)[C@H](O)[C@H](O)[C@H]1O | > 4 mM (inactive)
78 | NC(=O)C12CC3CC(C1)C(=O)C(C3)C2 | > 4 mM (inactive)
79 | Cc1ncc(CC(=O)O)s1 | > 4 mM (inactive)
80 | CNC(=O)C(=O)Nc1ccc(C)c(C)c1 | > 4 mM (inactive)
81 | Cc1nc(-c2ccccc2)ncc1CO | > 4 mM (inactive)
82 | COc1ccc2c(c1O)-c1c(OC)c(OC)cc3c1[C@H](C2)N(C)CC3 | > 4 mM (inactive)
83 | COc1cc(C)c(S(=O)(=O)N2CCN(C)CC2)cc1C | > 4 mM (inactive)
